{
  "source": "patent US6979676B2",
  "about": "(priority 2002, dated 2005)",
  "key": {"[1]": {"assay": "Stability of Formula I in various PG/buffer solutions (HPLC purity, initial point vs 80° C./8 days)", "assay_type": "physicochemical", "details": "initial point and 80° C./8 days"}, "[2]": {"assay": "Solubility of Formula I in various vehicles", "assay_type": "physicochemical", "details": "thermodynamic from solid, room temperature after 1 day"}, "[3]": {"assay": "Degradation rate of Formula I in various pH conditions (T90 at 80° C.)", "assay_type": "physicochemical"}, "[4]": {"assay": "physchem"}, "[5]": {"assay": "Stability of Formula I in PG/water or PG/buffers (HPLC purity, initial point vs 80° C./4 days)", "assay_type": "physicochemical", "details": "5 mg/mL, initial point and 80° C./4 days"}, "[6]": {"details": "50% PG/75 mM citrate buffer (pH = 4)"}},
  "note": "Read-outs that look alike come from different tables or passages of the source.",
  "data": [
    {"compound": "O=C1c2c(c3c4ccc(O)cc4n(C4OC(CO)C(O)C(O)C4O)c3c3[nH]c4cc(O)ccc4c23)C(=O)N1NC(CO)CO", "note": "[Formula I, 12,13-dihydro-2,10-dihydroxy-6-N-(1-hydroxymethyl-2-hydroxyethylamino)-13-(β-D-glucopyranosyl)-5H-indolo[2,3-α]pyrrolo[3,4-c]carbazole-5,7(6H)-dione]", "values": [
      {"measurement": "Stability of Formula I (purity by HPLC)", "setting": "[1]; 50% PG/50 mM citrate buffer (pH = 4)", "value": "−5.50", "unit": "%"},
      {"measurement": "Stability of Formula I (purity by HPLC)", "setting": "[1]; 50% PG/50 mM tartrate buffer (pH = 4)", "value": "−6.12", "unit": "%"},
      {"measurement": "Stability of Formula I (purity by HPLC)", "setting": "[1]; [6]", "value": "−6.49", "unit": "%"},
      {"measurement": "Stability of Formula I (purity by HPLC)", "setting": "[1]; 50% PG/water", "value": "−30.68", "unit": "%"},
      {"measurement": "solubility at 1 day", "setting": "[2]; aqueous buffer, 50 mM citrate buffer (pH = 3)", "value": 920, "unit": "µg/mL"},
      {"measurement": "solubility at 1 day", "setting": "[2]; aqueous buffer, 50 mM citrate buffer (pH = 4)", "value": 810, "unit": "µg/mL"},
      {"measurement": "solubility at 1 day", "setting": "[2]; aqueous buffer, 50 mM citrate buffer (pH = 5)", "value": 720, "unit": "µg/mL"},
      {"measurement": "solubility at 1 day", "setting": "[2]; aqueous buffer, 50 mM citrate buffer (pH = 6)", "value": 720, "unit": "µg/mL"},
      {"measurement": "solubility at 1 day", "setting": "[2]; aqueous buffer, 50 mM citrate buffer (pH = 7)", "value": 670, "unit": "µg/mL"},
      {"measurement": "solubility at 1 day", "setting": "[2]; aqueous with cosolvent or surfactant or cyclodextrin, 25% PEG 400/water (w/v)", "value": 16000, "unit": "µg/mL"},
      {"measurement": "solubility at 1 day", "setting": "[2]; aqueous with cosolvent or surfactant or cyclodextrin, 25% PG/water (w/v)", "value": 4000, "unit": "µg/mL"},
      {"measurement": "solubility at 1 day", "setting": "[2]; aqueous with cosolvent or surfactant or cyclodextrin, 40% PG/water (w/v)", "value": 12000, "unit": "µg/mL"},
      {"measurement": "solubility at 1 day", "setting": "[2]; aqueous with cosolvent or surfactant or cyclodextrin, 50% PEG 400/water (w/v)", "value": 25000, "unit": "µg/mL"},
      {"measurement": "solubility at 1 day", "setting": "[2]; aqueous with cosolvent or surfactant or cyclodextrin, 50% PG/50 mM citrate buffer (pH = 3)", "value": 24000, "unit": "µg/mL"},
      {"measurement": "solubility at 1 day", "setting": "[2]; aqueous with cosolvent or surfactant or cyclodextrin, 50% PG/50 mM citrate buffer (pH = 4)", "value": 25000, "unit": "µg/mL"},
      {"measurement": "solubility at 1 day", "setting": "[2]; aqueous with cosolvent or surfactant or cyclodextrin, 50% PG/50 mM citrate buffer (pH = 5)", "value": 26000, "unit": "µg/mL"},
      {"measurement": "solubility at 1 day", "setting": "[2]; aqueous with cosolvent or surfactant or cyclodextrin, 50% PG/50 mM citrate buffer (pH = 6)", "value": 27000, "unit": "µg/mL"},
      {"measurement": "solubility at 1 day", "setting": "[2]; aqueous with cosolvent or surfactant or cyclodextrin, 50% PG/50 mM citrate buffer (pH = 7)", "value": 27000, "unit": "µg/mL"},
      {"measurement": "solubility at 1 day", "setting": "[2]; aqueous with cosolvent or surfactant or cyclodextrin, 50% PG/water (w/v)", "value": 24000, "unit": "µg/mL"},
      {"measurement": "solubility at 1 day", "setting": "[2]; aqueous with cosolvent or surfactant or cyclodextrin, 75% PEG 400/water (w/v)", "value": 24000, "unit": "µg/mL"},
      {"measurement": "solubility at 1 day", "setting": "[2]; aqueous with cosolvent or surfactant or cyclodextrin, 75% PG/water (w/v)", "value": 45000, "unit": "µg/mL"},
      {"measurement": "solubility at 1 day", "setting": "[2]; organic solvent or mixture, 100% PEG 400", "value": "< 670", "unit": "µg/mL"},
      {"measurement": "solubility at 1 day", "setting": "[2]; organic solvent or mixture, 100% PG", "value": 1200, "unit": "µg/mL"},
      {"measurement": "solubility at 1 day", "setting": "[2]; saline or isotonic, 5% glucose/water", "value": 600, "unit": "µg/mL"},
      {"measurement": "solubility at 1 day", "setting": "[2]; water", "value": 620, "unit": "µg/mL"},
      {"measurement": "T90 (time required to degrade Formula I to 90% of the initial concentration)", "setting": "[3]; pH 2", "value": 0.9, "unit": "days"},
      {"measurement": "T90 (time required to degrade Formula I to 90% of the initial concentration)", "setting": "[3]; pH 3, extrapolated data", "value": 19, "unit": "days"},
      {"measurement": "T90 (time required to degrade Formula I to 90% of the initial concentration)", "setting": "[3]; pH 4, extrapolated data", "value": 89, "unit": "days"},
      {"measurement": "T90 (time required to degrade Formula I to 90% of the initial concentration)", "setting": "[3]; pH 5, extrapolated data", "value": 7.8, "unit": "days"},
      {"measurement": "T90 (time required to degrade Formula I to 90% of the initial concentration)", "setting": "[3]; pH 6", "value": 2.3, "unit": "days"},
      {"measurement": "T90 (time required to degrade Formula I to 90% of the initial concentration)", "setting": "[3]; pH 7", "value": 0.233, "unit": "days"},
      {"measurement": "T90 (time required to degrade Formula I to 90% of the initial concentration)", "setting": "[3]; pH 8", "value": 0.0194, "unit": "days"},
      {"measurement": "T90 (time required to degrade Formula I to 90% of the initial concentration)", "setting": "[3]; pH 9", "value": 0.00486, "unit": "days"},
      {"measurement": "T90 (time required to degrade Formula I to 90% of the initial concentration)", "setting": "[3]; pH 10", "value": 0.000833, "unit": "days"},
      {"measurement": "Stability of Formula I (purity by HPLC)", "setting": "1 month, 0.15 mg/mL", "value": "−0.68", "unit": "%"},
      {"measurement": "Stability of Formula I (purity by HPLC)", "setting": "50% PEG 400/water, 10 mg/mL, initial point and 40° C./1 month", "value": "−2.9", "unit": "%"},
      {"measurement": "Stability of Formula I (purity by HPLC)", "setting": "50% PG/water, 10 mg/mL, initial point and 40° C./1 month", "value": "−0.03", "unit": "%"},
      {"measurement": "solubility", "setting": "[4]; aqueous with cosolvent or surfactant or cyclodextrin", "value": 10000, "unit": "µg/mL"},
      {"measurement": "solubility", "setting": "[4]; saline or isotonic", "value": 150, "unit": "µg/mL"},
      {"measurement": "Stability of Formula I (purity by HPLC)", "setting": "[5]; 50% PG/75 mM citrate buffer (pH = 3)", "value": "−2.4", "unit": "%"},
      {"measurement": "Stability of Formula I (purity by HPLC)", "setting": "[5]; [6]", "value": "−2.2", "unit": "%"},
      {"measurement": "Stability of Formula I (purity by HPLC)", "setting": "[5]; 50% PG/75 mM citrate buffer (pH = 5)", "value": "−2.9", "unit": "%"},
      {"measurement": "Stability of Formula I (purity by HPLC)", "setting": "[5]; 50% PG/water", "value": "−9.3", "unit": "%"}
    ]}
  ]
}
